# Measured values taken from patent publication US9247759B2, “Identification of human T2R receptors that respond to bitter compounds that elicit the bitter taste in compositions, and the use thereof in assays to identify compounds that inhibit (block) bitter taste in compositions and use thereof” (SENOMYX, INC., priority 2007, dated 2016).
# Like-named read-outs stand apart in the source and are kept apart here.
# How the values were obtained:
# hT2R14 [1] = biological target: T1, hT2R14 (Homo sapiens (Human), UniProt Q9NYV8); assay: hT2R14 antagonist high-throughput FLIPR assay, stable cell line with G16g44, agonist aristolochic acid; type: cell-based
# T1 sequence (Q9NYV8 whole entry): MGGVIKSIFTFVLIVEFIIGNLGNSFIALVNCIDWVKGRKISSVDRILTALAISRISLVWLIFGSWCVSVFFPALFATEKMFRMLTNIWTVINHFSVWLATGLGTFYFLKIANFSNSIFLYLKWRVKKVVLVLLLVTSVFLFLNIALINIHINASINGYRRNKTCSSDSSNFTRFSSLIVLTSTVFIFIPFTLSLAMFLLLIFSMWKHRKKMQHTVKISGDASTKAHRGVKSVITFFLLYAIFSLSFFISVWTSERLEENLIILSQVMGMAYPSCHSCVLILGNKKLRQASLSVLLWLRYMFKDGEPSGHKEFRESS
# How it was run: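 HEK293 cells stably expressing hT2R14 with chimeric G16g44 were stimulated with aristolochic acid (3 μM), giving 70-80% of maximal receptor activity. Test compounds were added together with the agonist, and antagonism was read as fluorescent calcium signal on FLIPR.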
# hT2R3 = hT2R3 (Homo sapiens (Human), UniProt Q9NYW6); assay: hT2R panel inhibition, transient HEK293 G16g44, agonist Chloroquine pH6.5 50 μM; type: cell-based; details: HEK293, compound at 25 μM; receptor activated to EC80 with the corresponding agonist; read-out: screening result against bitter receptor 3
# Chain of hT2R3 (Q9NYW6 whole entry): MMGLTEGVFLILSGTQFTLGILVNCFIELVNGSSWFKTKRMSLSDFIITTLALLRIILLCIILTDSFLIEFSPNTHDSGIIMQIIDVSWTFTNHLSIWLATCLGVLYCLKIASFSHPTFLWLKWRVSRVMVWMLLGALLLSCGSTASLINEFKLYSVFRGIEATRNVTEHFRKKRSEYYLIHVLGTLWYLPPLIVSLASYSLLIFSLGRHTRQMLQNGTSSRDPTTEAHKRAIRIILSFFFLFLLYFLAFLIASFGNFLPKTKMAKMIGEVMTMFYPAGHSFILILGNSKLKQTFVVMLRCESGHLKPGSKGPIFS
# How it was run: (§1)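 The test compound's selectivity was profiled by challenging each transiently expressed human T2R with its activating bitter ligand at an EC80 concentration, inhibition being the reduction of receptor signalling it produced.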
# hT2R4 = hT2R4 (Homo sapiens (Human), UniProt Q9NYW5); assay: hT2R panel inhibition, transient HEK293 G16g44, agonist Chloroquine pH6.5 5 mM; type: cell-based; details: HEK293, compound at 25 μM; receptor activated to EC80 with the corresponding agonist; class symbols; read-out: screening result against bitter receptor 4
# Chain of hT2R4 (Q9NYW5 whole entry): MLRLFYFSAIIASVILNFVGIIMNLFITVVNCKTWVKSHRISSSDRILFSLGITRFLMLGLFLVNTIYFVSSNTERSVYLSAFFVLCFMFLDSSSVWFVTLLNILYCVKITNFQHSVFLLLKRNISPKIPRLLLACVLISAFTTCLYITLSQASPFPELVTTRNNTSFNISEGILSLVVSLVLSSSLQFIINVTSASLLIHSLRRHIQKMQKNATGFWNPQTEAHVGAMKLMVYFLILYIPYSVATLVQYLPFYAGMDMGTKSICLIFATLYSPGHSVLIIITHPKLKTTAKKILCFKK
# How it was run: as §1
# hT2R5 = hT2R5 (Homo sapiens (Human), UniProt Q9NYW4); assay: hT2R panel inhibition, transient HEK293 G16g44, agonist Picoline 10 mM; type: cell-based; details: HEK293, compound at 25 μM
# Chain of hT2R5 (Q9NYW4 whole entry): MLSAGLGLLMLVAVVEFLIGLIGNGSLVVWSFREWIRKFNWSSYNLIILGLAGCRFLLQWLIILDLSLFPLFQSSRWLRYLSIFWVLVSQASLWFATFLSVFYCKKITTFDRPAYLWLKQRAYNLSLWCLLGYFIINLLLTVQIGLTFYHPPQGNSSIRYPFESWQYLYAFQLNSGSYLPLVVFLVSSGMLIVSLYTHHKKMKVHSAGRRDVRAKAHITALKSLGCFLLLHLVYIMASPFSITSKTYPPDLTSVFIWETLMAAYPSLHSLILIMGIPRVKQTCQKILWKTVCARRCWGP
# How it was run: as §1
# hT2R7 = hT2R7 (Homo sapiens (Human), UniProt Q9NYW3); assay: hT2R panel inhibition, transient HEK293 G16g44, agonist Chloroquine pH6.5 10 mM; type: cell-based; details: HEK293, compound at 25 μM
# Chain of hT2R7 (Q9NYW3 whole entry): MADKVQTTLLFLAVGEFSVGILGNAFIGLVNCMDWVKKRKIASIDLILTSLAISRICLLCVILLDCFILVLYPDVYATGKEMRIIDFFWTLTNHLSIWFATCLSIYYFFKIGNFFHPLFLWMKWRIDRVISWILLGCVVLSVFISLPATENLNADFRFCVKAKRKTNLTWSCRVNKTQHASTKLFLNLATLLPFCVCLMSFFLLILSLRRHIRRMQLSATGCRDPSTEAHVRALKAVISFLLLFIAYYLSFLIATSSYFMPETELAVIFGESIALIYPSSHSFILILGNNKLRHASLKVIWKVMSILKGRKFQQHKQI
# How it was run: as §1
# hT2R9 = hT2R9 (Homo sapiens (Human), UniProt Q9NYW1); assay: hT2R panel inhibition, transient HEK293 G16g44, agonist Ofloxacin 1 mM; type: cell-based; details: HEK293, compound at 25 μM; receptor activated to EC80 with the corresponding agonist; read-out: screening result against bitter receptor 9
# Chain of hT2R9 (Q9NYW1 whole entry): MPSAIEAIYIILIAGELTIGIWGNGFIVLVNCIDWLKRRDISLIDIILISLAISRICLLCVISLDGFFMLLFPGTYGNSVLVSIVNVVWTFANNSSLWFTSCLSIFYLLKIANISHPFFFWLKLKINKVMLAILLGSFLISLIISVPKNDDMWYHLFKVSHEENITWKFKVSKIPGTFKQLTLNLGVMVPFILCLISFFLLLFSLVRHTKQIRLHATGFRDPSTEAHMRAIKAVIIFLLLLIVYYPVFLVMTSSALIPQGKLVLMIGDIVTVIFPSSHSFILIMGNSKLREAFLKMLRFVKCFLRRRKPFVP
# Method: (§2) Specifically, in order to evaluate the inhibitory selectivity of the Compound C compound, this compound was tested against 22 human T2Rs which were deorphaned by Senomyx. These receptors and the bitter ligands that activate these human T2Rs are reported in earlier patent applications which are incorporated by reference herein. These 22 human T2Rs are hT2R1, 3, 4, 5, 7, 8, 9, 10, 13, 14, 16, 44, 51, 54, 55, 61, 63, 64, 65, 67, 71 and 75. The amino acid and nucleic acid sequences of all of these T2Rs may be found in these earlier patent applications. These human T2Rs were each individually transiently transfected into HEK293 cells that stably express the promiscuous G protein G16g44 and functional assays were effected using these receptors as disclosed in these same patent applications. […] The ligands were used at EC80 concentration levels. The list of bitter ligands utilized and the tested ligand concentrations are contained in Table 5 of this example.
# (§3) Relating to the foregoing, FIG. 5 contains experimental results wherein Compound C was tested with different agonist compounds. The inhibition activity is represented by the reduction of receptor activity in the presence of Compound C. […] These 13 hT2Rs are hT2R3, 7, 10, 14, 16, 44, 51, 55, 61, 63, 64, 65, and 71.
# hT2R10 = hT2R10 (Homo sapiens (Human), UniProt Q9NYW0); assay: hT2R panel inhibition, transient HEK293 G16g44, agonist Strychnine 50 μM; type: cell-based; details: HEK293, read-out: screening result against bitter receptor 10, compound at 25 μM; receptor activated to EC80 with the corresponding agonist
# Chain of hT2R10 (Q9NYW0 whole entry): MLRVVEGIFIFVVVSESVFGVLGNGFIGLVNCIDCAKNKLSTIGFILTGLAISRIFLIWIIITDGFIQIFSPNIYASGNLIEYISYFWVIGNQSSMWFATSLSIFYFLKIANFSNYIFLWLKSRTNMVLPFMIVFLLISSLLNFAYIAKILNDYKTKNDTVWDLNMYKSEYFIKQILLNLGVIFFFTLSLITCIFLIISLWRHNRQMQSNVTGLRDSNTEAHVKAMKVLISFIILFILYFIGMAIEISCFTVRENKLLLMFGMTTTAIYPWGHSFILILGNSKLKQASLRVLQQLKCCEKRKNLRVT
# hT2R14 [2] = biological target: T1, hT2R14; assay: hT2R panel inhibition, transient HEK293 G16g44, agonist Aristolochic Acid 2 μM; type: cell-based; details: HEK293, compound at 25 μM
# How it was run: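 Each hT2R was transiently transfected into HEK293 cells stably expressing G16g44 and assayed functionally for inhibition of agonist response. Agonists were applied at EC80: andrographolide at 0.5 mM for hT2R8 and aristolochic acid at 2 μM for hT2R14.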
# hT2R16 = hT2R16 (Homo sapiens (Human), UniProt Q9NYV7); assay: hT2R panel inhibition, transient HEK293 G16g44, agonist Salicin 1 mM; type: cell-based; details: HEK293, compound at 25 μM; receptor activated to EC80 with the corresponding agonist; read-out: screening result against bitter receptor 16
# Chain of hT2R16 (Q9NYV7 whole entry): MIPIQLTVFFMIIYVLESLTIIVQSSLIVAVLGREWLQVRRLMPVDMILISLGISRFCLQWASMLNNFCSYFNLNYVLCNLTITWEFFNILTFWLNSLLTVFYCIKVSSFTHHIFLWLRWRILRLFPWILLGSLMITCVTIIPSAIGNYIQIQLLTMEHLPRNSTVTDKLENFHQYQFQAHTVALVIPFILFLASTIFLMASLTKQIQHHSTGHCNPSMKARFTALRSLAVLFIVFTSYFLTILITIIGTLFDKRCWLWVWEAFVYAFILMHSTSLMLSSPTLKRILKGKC
# How it was run: as §1
# hT2R44 = assay: hT2R panel inhibition, transient HEK293 G16g44, agonist Denatonium 0.5 μM; type: cell-based, human; details: compound at 25 μM
# How it was run: as §1
# hT2R51 = hT2R51 (Homo sapiens (Human), UniProt P59533); assay: hT2R panel inhibition, transient HEK293 G16g44, agonist Prop 2.5 μM; type: cell-based; details: HEK293, compound at 25 μM; receptor activated to EC80 with the corresponding agonist; read-out: screening result against bitter receptor 51
# Chain of hT2R51 (P59533 whole entry): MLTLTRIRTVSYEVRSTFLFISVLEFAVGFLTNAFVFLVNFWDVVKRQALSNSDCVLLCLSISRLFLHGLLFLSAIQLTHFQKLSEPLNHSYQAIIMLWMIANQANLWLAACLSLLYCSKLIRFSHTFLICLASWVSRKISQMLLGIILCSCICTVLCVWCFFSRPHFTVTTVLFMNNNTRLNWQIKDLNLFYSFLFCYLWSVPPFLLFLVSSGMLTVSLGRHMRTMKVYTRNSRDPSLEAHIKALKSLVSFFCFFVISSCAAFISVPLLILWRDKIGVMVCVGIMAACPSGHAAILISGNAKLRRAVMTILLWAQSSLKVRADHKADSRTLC
# How it was run: as §1
# hT2R54 = assay: hT2R panel inhibition, transient HEK293 G16g44, agonist Ranitidine 5 mM; type: cell-based, human; details: compound at 25 μM; receptor activated to EC80 with the corresponding agonist
# How it was run: as §1
# hT2R55 = assay: hT2R panel inhibition, transient HEK293 G16g44, agonist Cinchonine 150 μM; type: cell-based, human; details: compound at 25 μM; receptor activated to EC80 with the corresponding agonist
# How it was run: as §1
# hT2R61 = hT2R61 (Homo sapiens (Human), UniProt P59537); assay: hT2R panel inhibition, transient HEK293 G16g44, agonist Aristolochic Acid 25 nM; type: cell-based; details: HEK293, compound at 25 μM
# Chain of hT2R61 (P59537 whole entry): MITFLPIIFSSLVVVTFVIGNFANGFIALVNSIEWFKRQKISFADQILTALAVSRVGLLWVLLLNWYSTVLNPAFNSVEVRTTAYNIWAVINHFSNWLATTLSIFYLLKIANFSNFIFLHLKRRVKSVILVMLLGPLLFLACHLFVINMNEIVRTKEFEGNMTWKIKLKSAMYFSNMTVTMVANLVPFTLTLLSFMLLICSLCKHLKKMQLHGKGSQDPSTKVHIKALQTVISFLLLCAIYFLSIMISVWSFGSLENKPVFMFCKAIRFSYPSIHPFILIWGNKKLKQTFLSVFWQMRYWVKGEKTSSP
# How it was run: as §1
# hT2R63 = assay: hT2R panel inhibition, transient HEK293 G16g44, agonist Caffeine 1 mM or Andrographolide 100 μM; type: cell-based, human; details: compound at 25 μM
# How it was run: as §1
# hT2R64 = hT2R64 (Homo sapiens (Human), UniProt P59538); assay: hT2R panel inhibition, transient HEK293 G16g44, agonist Aristolochic Acid 1 μM; type: cell-based; details: HEK293, compound at 25 μM; receptor activated to EC80 with the corresponding agonist; read-out: screening result against bitter receptor 64
# Chain of hT2R64 (P59538 whole entry): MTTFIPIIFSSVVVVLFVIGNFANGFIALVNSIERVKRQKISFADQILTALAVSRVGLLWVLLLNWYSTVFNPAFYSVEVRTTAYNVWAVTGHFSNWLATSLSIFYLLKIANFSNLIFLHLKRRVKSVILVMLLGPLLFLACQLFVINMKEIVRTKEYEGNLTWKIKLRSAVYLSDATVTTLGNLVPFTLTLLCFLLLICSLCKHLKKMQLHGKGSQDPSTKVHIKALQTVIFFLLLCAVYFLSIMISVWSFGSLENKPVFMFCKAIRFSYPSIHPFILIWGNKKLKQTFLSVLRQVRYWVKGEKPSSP
# How it was run: as §1
# hT2R65 = assay: hT2R panel inhibition, transient HEK293 G16g44, agonist Oleuropein 1 mM; type: cell-based, human; details: compound at 25 μM; receptor activated to EC80 with the corresponding agonist
# How it was run: as §1
# hT2R67 = assay: hT2R panel inhibition, transient HEK293 G16g44, agonist Andrographolide 5 μM; type: cell-based, human; details: compound at 25 μM; receptor activated to EC80 with the corresponding agonist
# How it was run: as §1
# hT2R71 = hT2R71 (Homo sapiens (Human), UniProt P59536); assay: hT2R panel inhibition, transient HEK293 G16g44, agonist Picric Acid 10 μM; type: cell-based; details: HEK293, compound at 25 μM
# Chain of hT2R71 (P59536 whole entry): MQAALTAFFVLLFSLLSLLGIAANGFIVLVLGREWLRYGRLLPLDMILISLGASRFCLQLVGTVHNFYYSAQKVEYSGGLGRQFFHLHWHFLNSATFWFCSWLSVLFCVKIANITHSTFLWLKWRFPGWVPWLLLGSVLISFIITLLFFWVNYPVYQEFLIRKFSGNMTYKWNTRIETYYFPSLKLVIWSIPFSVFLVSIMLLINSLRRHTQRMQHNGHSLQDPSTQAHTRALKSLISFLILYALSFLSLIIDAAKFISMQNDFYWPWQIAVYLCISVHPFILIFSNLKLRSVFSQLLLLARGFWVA
# How it was run: as §1
# hT2R75 = hT2R75 (Homo sapiens (Human), UniProt P59540); assay: hT2R panel inhibition, transient HEK293 G16g44, agonist Strychnine 1 μM; type: cell-based; details: HEK293, read-out: screening result against bitter receptor 75, compound at 25 μM; receptor activated to EC80 with the corresponding agonist
# Chain of hT2R75 (P59540 whole entry): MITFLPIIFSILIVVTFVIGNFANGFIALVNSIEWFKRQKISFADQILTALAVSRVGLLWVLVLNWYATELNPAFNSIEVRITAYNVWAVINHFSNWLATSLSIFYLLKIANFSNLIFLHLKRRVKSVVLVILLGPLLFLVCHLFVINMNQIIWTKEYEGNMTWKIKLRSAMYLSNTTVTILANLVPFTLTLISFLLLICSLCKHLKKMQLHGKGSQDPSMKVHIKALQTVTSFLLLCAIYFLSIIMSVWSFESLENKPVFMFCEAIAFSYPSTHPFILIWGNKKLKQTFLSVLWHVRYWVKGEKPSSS
# hT2R13 = hT2R13 (Homo sapiens (Human), UniProt Q9NYV9); assay: hT2R panel inhibition, transient HEK293 G16g44, agonist Oxyphenonium 1 mM; type: cell-based; details: HEK293, compound at 25 μM; receptor activated to EC80 with agonist; read-out: inhibition of bitter receptor 13
# Chain of hT2R13 (Q9NYV9 whole entry): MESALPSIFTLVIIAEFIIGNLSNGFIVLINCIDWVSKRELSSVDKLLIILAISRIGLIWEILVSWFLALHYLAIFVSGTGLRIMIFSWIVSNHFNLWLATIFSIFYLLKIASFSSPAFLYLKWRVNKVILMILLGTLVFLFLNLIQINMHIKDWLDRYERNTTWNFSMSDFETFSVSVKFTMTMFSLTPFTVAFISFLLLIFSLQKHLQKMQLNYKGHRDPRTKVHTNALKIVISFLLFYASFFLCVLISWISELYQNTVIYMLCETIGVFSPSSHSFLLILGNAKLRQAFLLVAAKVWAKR
# Method: as §2, §3
# [3] = receptor activated to EC80 with the corresponding agonist
# [4] = receptor activated to EC80 with agonist, read-out: inhibition of bitter receptor 14
# [5] = receptor activated to EC80 with agonist, read-out: inhibition of bitter receptor 71
# [6] = receptor activated to EC80 with agonist
smiles,measurement,setting,value
"COc1cccc(CN(Cc2ccc(C(=O)O)cc2)S(=O)(=O)c2ccccc2)c1 [Example 5-101, 4-((N-(3-methoxybenzyl)phenylsulfonamido)methyl) benzoic acid]",IC50,"hT2R14 [1]; Table C, read-out: hT2R14 IC50",0.345 µM
same,inhibition at 25 µM,hT2R3,60 to 80%
same,inhibition at 25 µM,hT2R4,40 to 60%
same,inhibition at 25 µM,"hT2R5; receptor activated to EC80 with the corresponding agonist, read-out: screening result against bitter receptor 5",40 to 60%
same,inhibition at 25 µM,"hT2R7; receptor activated to EC80 with the corresponding agonist, read-out: screening result against bitter receptor 7",60 to 80%
same,inhibition at 25 µM,hT2R9,20 to 40%
same,inhibition at 25 µM,hT2R10,60 to 80%
same,inhibition at 25 µM,"hT2R14 [2]; receptor activated to EC80 with the corresponding agonist, read-out: screening result against bitter receptor 14",> 80%
same,inhibition at 25 µM,hT2R16,40 to 60%
same,screening result against bitter receptor 44,hT2R44; [3],+++ (60% to 80% inhibition = +++)
same,inhibition at 25 µM,hT2R51,40 to 60%
same,screening result against bitter receptor 54,hT2R54,++ (40% to 60% inhibition = ++)
same,screening result against bitter receptor 55,hT2R55,+++ (60% to 80% inhibition = +++)
same,inhibition at 25 µM,"hT2R61; receptor activated to EC80 with the corresponding agonist, read-out: screening result against bitter receptor 61",> 80%
same,screening result against bitter receptor 63,hT2R63; [3],+++ (60% to 80% inhibition = +++)
same,inhibition at 25 µM,hT2R64,> 80%
same,screening result against bitter receptor 65,hT2R65,+++ (60% to 80% inhibition = +++)
same,screening result against bitter receptor 67,hT2R67,++ (40% to 60% inhibition = ++)
same,inhibition at 25 µM,"hT2R71; receptor activated to EC80 with the corresponding agonist, read-out: screening result against bitter receptor 71",60 to 80%
same,inhibition at 25 µM,hT2R75,40 to 60%
"CCN(C(=O)CN(C)S(=O)(=O)c1ccc2c(c1)n(C)c(=O)c(=O)n2C)c1cccc(C)c1 [Example 6-11, N-ethyl-N-m-tolyl-2-(N,1,4-trimethyl-2,3-dioxo-1,2,3,4-tetrahydroquinoxaline-6-sulfonamido)acetamide]",IC50,"hT2R14 [1]; Table D, read-out: hT2R14 IC50",14.9 µM
same,inhibition at 25 µM,"hT2R5; receptor activated to EC80 with agonist, read-out: inhibition of bitter receptor 5",20 to 40%
same,inhibition at 25 µM,"hT2R7; receptor activated to EC80 with agonist, read-out: inhibition of bitter receptor 7",20 to 40%
same,inhibition at 25 µM,hT2R13,40 to 60%
same,inhibition at 25 µM,hT2R14 [2]; [4],20 to 40%
same,inhibition at 25 µM,"hT2R61; receptor activated to EC80 with agonist, read-out: inhibition of bitter receptor 61",20 to 40%
same,inhibition at 25 µM,hT2R71; [5],20 to 40%
"Cn1c(=O)c(=O)n(C)c2cc(S(=O)(=O)Nc3ccc4c(c3)OCCO4)ccc21 [Example 6-3, N-(2,3-dihydrobenzo[b][1,4]dioxin-6-yl)-1,4-dimethyl-2,3-dioxo-1,2,3,4-tetrahydroquinoxaline-6-sulfonamide]",IC50,hT2R14 [1]; read-out: IC50 on hT2R14 bitter receptor,7.71 µM
same,inhibition at 25 µM,hT2R13,20 to 40%
same,inhibition at 25 µM,hT2R14 [2]; [4],> 80%
same,inhibition of bitter receptor 44,hT2R44; [6],+ (20% to 40% inhibition = +)
same,inhibition of bitter receptor 63,hT2R63; [6],+ (20% to 40% inhibition = +)
same,inhibition at 25 µM,hT2R71; [5],20 to 40%
